This note sets out measurements from patent US20230295162A1 (EÖTVÖS LORÁND TUDOMÁNYEGYETEM, priority 2020, published 2023).

The subject of data set [1] is A2058 (human metastatic melanoma) cells. Kind of data set: Colorimetric alamarBlue assay, long treatment. The conditions noted are these: Homo sapiens, A2058, 72 h, read-out: cytotoxicity expressed in IC50, A-2058.
Data set [2] deals with H2228 lung cancer cell line. Nature of the data set: High-throughput screening, CellTiter-Glo cell viability assay at 100 nM. Type of data set: cell-based, human. To be noted: Homo sapiens, NCI-H2228, HTS, compounds at 100 nM, 72 h, read-out: cytotoxicity expressed in IC50, H2228 (results of High throughput screening). How it is done: (§1) EBC-1 (obtained from JRCB, https://cellbank.nibiohn.go.jp/english/) and H2228 (obtained from ATCC https://www.lgcstandards-atcc.org/) cell lines were maintained according to the instructions provided by JRCB and ATCC in a 5% CO2 humidified incubator maintained at 37° C. temperature. Effect of compounds on cell viability was measured via CellTiter-Glo® luminescent cell viability assay (Promega, Madison, WI, USA). Cells were plated at 1000 cells/well onto a flat-bottomed, white 96 well plate (BRANDplates, cat. no.: 781965). After 24 h, cells were treated for 72 h with the compounds at 100 nM concentration. After the treatment, medium was removed and CellTiter-Glo® reagent was added. Untreated cells were used as control. The luminescence signal was recorded using a microplate reader (BioTek Synergy 2 Multi-Mode Reader, BioTek, Winooski, VT, USA). Cell viability data (% of untreated control cells) was evaluated with Microsoft Excel.
(In ATP-based viability assays light output follows the ATP content of the culture.)

For data set [3], the system named is EBC-1 lung cancer cell line. The description is as above. Type of data set: cell-based, human. The conditions noted are these: Homo sapiens, EBC-1, HTS, compounds at 100 nM, 72 h, read-out: cytotoxicity expressed in IC50, EBC-1 (results of High throughput screening). How it is done: as §1
Data set [4] relates to COLO-205 (human colorectal adenocarcinoma) cells. Nature of the data set: Colorimetric alamarBlue assay, long treatment. The conditions noted are these: COLO 205, 72 h, read-out: cytotoxicity expressed in IC50, COLO-205. (The colour change of resazurin is a common sign of viable cells or microbes.)
Data set [5] has as its system PANC-1 (human pancreatic carcinoma) cells. Kind of data set: Impedance-based viability assay (xCELLigence SP), long treatment. The format is cell-based. To be noted: 72 h, read-out: cytotoxicity expressed in IC50, PANC-1. The source says: (Gibco®/Invitrogen Corporation, New York, NY, USA).
Data obtained from each experiment represent mathematical averages.

The subject of data set [6] is DU 145 (prostate, carcinoma) cells. Nature of the data set: Cell viability assay, CellTiter-Glo (Example 21). Type of data set: cell-based, human. The conditions noted are these: 72 h. How it is done: (§2) Effect of the selected compounds on cancer cell viability was measured via CellTiter-Glo® luminescent cell viability assay (Promega, Madison, WI, USA) according to the manufacturer's instructions. Cells were plated onto a flat-bottomed, white 96 well plate (BRANDplates®, cat. no.: 781965). Density of the seeded cells was optimized based on their size and growth rate, as the follows: Panc-1:750 cells/well; DU 145, PC-3, Capan-1, MIA PaCa-2, SCC-25, FaDu and EBC-1: 1000 cells/well; LNCaP, Detroit 562, MDA-MB-231 and MDA-MB-453 1500 cells/well. […] After the treatment, the luminescence signal was recorded using a microplate reader (BioTek Synergy 2 Multi-Mode Reader, BioTek, Winooski, VT, USA). Dose-response curves were generated by GraphPad Prism 8.4.2. software using a non-linear regression model (variable slope, four parameters), (see FIGS. 12-51).

Data set [7] deals with PC-3 (prostate, adenocarcinoma) cells. Kind of data set: Cell viability assay, CellTiter-Glo (Example 21). The format is cell-based, human. The conditions noted are these: 72 h treatment. How it is done:
as §2

Data set [8] deals with SCC-25 (tongue, squamous cell carcinoma) cells. Kind of data set: Cell viability assay, CellTiter-Glo (Example 21). The format is cell-based, human. The conditions noted are these: 72 h treatment. How it is done:
as §2

In data set [9] the test system is FaDu (pharynx, squamous cell carcinoma) cells. Nature of the data set: Cell viability assay, CellTiter-Glo (Example 21). Type of data set: cell-based, human. To be noted: 72 h treatment. How it is done:
as §2

Data set [10] concerns Capan-1 (pancreas, adenocarcinoma) cells. Nature of the data set: Cell viability assay, CellTiter-Glo (Example 21). The format is cell-based, human. To be noted: 72 h treatment. How it is done:
as §2

Data set [11] concerns Detroit 562 (pharynx, carcinoma) cells. Kind of data set: Cell viability assay, CellTiter-Glo (Example 21). The format is cell-based, human. To be noted: 72 h treatment. How it is done: as §2
Data set [12] concerns EBC-1 (lung, squamous cell carcinoma) cells. Kind of data set: Cell viability assay, CellTiter-Glo (Example 21). The format is cell-based, human. To be noted: 72 h treatment. How it is done:
as §2

Data set [13] has as its system Panc-1 (pancreas, carcinoma) cells. Nature of the data set: Cell viability assay, CellTiter-Glo (Example 21). The format is cell-based, human. The conditions noted are these: 72 h treatment. How it is done: as §2
Data set [14] relates to LNCaP (prostate, carcinoma) cells. Nature of the data set: Cell viability assay, CellTiter-Glo (Example 21). To be noted: 72 h. The format is cell-based, human. How it is done: as §2
Data set [15] deals with MIA PaCa-2 (pancreas, carcinoma) cells. Kind of data set: Cell viability assay, CellTiter-Glo (Example 21). Type of data set: cell-based, human. The conditions noted are these: 72 h treatment. How it is done: as §2
Data set [16] deals with MDA-MB-453 (breast, carcinoma) cells. Nature of the data set: Cell viability assay, CellTiter-Glo (Example 21). The format is cell-based, human. To be noted: 72 h treatment. How it is done: as §2
Data set [17] relates to MDA-MB-231 (breast, adenocarcinoma) cells. Kind of data set: Cell viability assay, CellTiter-Glo (Example 21). The conditions noted are these: 72 h treatment. Type of data set: cell-based, human. How it is done: as §2
The subject of data set [18] is Panc-1 human cell line. Kind of data set: Cytotoxicity on Panc-1, xCELLigence SP, IC50 after 24 h, 48 h, 72 h and 96 h (Example 22).

One may read the IC50 as the point on the concentration scale where inhibition reaches its midpoint.

Read-outs that look alike come from different tables or passages of the source.

In the case of `O=C1C2=C(CCN(Cc3ccccc3)C2)N2CCN=C2N1Cc1ccc([N+](=O)[O-])cc1F` [I/48], the IC50 in data set [1] was 500 nM; in [2], greater than 100 nM; in data set [3] it was greater than 100 nM; in data set [4], 25000 nM; in [5], 6160 nM.
Take `NCc1cccc(CN2C(=O)C3=C(CCN(Cc4ccc(C(F)(F)F)cc4)C3)N3CCN=C23)c1` [I/68]: the IC50 in data set [1] was greater than 10000 nM; in [2], greater than 100 nM; in data set [3] it was greater than 100 nM; in [4], greater than 10000 nM; in data set [5], greater than 10000 nM.
For `[N-]=[N+]=Nc1cccc(CN2CCC3=C(C2)C(=O)N(Cc2ccc(Cl)cc2)C2=NCCN23)c1` [I/133], the “DU 145 cell viability” value in data set [6] (3.7 nM) was 98.8 ± 6.7 % of control; in data set [6] (11.1 nM), 45.7 ± 4.4 % of control; in data set [6] (100 nM) it was 8.0 ± 2.0 % of control; in data set [6] (300 nM) it was 8.1 ± 2.6 % of control. The “PC-3 (prostate, adenocarcinoma) cell viability (% of control)” value was 105.6 ± 1.8 % of control in data set [7] (3.7 nM), 83.5 ± 6.4 % of control in data set [7] (11.1 nM), 32.6 ± 3.3 % of control in data set [7] (100 nM) and 32.9 ± 4.6 % of control in data set [7] (300 nM). The “SCC-25 (tongue, squamous cell carcinoma) cell viability (% of control)” value in data set [8] (3.7 nM) is recorded as 102.3 ± 4.2 % of control; in [8] (11.1 nM) it was 72.9 ± 3.0 % of control; in data set [8] (100 nM), 34.7 ± 4.9 % of control; in [8] (300 nM), 40.9 ± 3.7 % of control. Also, the “FaDu (pharynx, squamous cell carcinoma) cell viability (% of control)” value in data set [9] (3.7 nM) is 100.0 ± 6.2 % of control; in data set [9] (11.1 nM), 70.7 ± 13.1 % of control; in data set [9] (100 nM), 25.3 ± 6.4 % of control; in data set [9] (300 nM) it was 24.6 ± 6.8 % of control. For the same molecule, the “Capan-1 (pancreas, adenocarcinoma) cell viability (% of control)” value in data set [10] (3.7 nM) is 108.3 ± 8.3 % of control; in [10] (11.1 nM), 98.8 ± 7.9 % of control; in data set [10] (100 nM), 32.6 ± 4.0 % of control; in data set [10] (300 nM), 34.0 ± 2.8 % of control. The “Detroit 562 (pharynx, carcinoma) cell viability (% of control)” value is reported as 47.1 ± 16.0 % of control in data set [11] (3.7 nM), 31.1 ± 6.5 % of control in data set [11] (11.1 nM), 28.8 ± 3.6 % of control in [11] (100 nM) and 31.3 ± 4.1 % of control in [11] (300 nM). For the same molecule, the “EBC-1 (lung, squamous cell carcinoma) cell viability (% of control)” value is recorded as 97.1 ± 6.0 % of control in data set [12] (3.7 nM), 60.1 ± 6.7 % of control in data set [12] (11.1 nM), 23.2 ± 0.7 % of control in data set [12] (100 nM) and 22.2 ± 1.3 % of control in data set [12] (300 nM). The “Panc-1 (pancreas, carcinoma) cell viability (% of control)” value in data set [13] (3.7 nM) is given as 108.9 ± 10.2 % of control; in data set [13] (11.1 nM) it was 94.1 ± 4.0 % of control; in [13] (100 nM) it was 56.1 ± 3.7 % of control; in data set [13] (300 nM) it was 55.7 ± 2.5 % of control. Also, the LNCaP cell viability in data set [14] (3.7 nM) was 95.9 ± 6.1 % of control; in data set [14] (11.1 nM) it was 33.4 ± 3.1 % of control; in [14] (100 nM), 12.3 ± 1.1 % of control; in [14] (300 nM) it was 13.3 ± 1.2 % of control. The “MIA PaCa-2 (pancreas, carcinoma) cell viability (% of control)” value in data set [15] (3.7 nM) is given as 104.0 ± 17.3 % of control; in [15] (11.1 nM), 92.1 ± 13.2 % of control; in [15] (100 nM), 18.4 ± 7.8 % of control; in data set [15] (300 nM), 17.4 ± 7.9 % of control. Further, the “MDA-MB-453 (breast, carcinoma) cell viability (% of control)” value in data set [16] (3.7 nM) is listed as 108.6 ± 19.7 % of control; in data set [16] (11.1 nM), 50.1 ± 10.6 % of control; in data set [16] (100 nM), 31.9 ± 1.3 % of control; in data set [16] (300 nM), 31.7 ± 0.5 % of control. The “MDA-MB-231 (breast, adenocarcinoma) cell viability (% of control)” value in data set [17] (3.7 nM) is recorded as 101.4 ± 2.0 % of control; in [17] (11.1 nM), 100.4 ± 2.9 % of control; in data set [17] (100 nM), 58.2 ± 2.5 % of control; in data set [17] (300 nM) it was 56.4 ± 3.5 % of control. For the same molecule, the IC50 in [18] (PANC-1, 72 h, read-out: IC50 (72 h) [nM]) is 9.05 ± 0.669 nM; in data set [18] (PANC-1, 96 h, read-out: IC50 (96 h) [nM]) it was 4.73 ± 0.109 nM.
